This note sets out measurements from ChEMBL document CHEMBL1201862, “PubChem BioAssay data set” (2004).

Some test systems named below: A498; COLO 205; HCC 2998; HL-60; HOP-62; MCF7; MDA-MB-435; Malme-3M; NCI-H23; NCI-H522; OVCAR-3; OVCAR-5; PC-3; SF-268; SK-MEL-28; SK-MEL-5; SN12C; UACC-62; HOP-92.
What all share (experiment): inhibition of tumour cell growth, NCI panel, 48 h

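Exposure lasted 48 hours, with cells grown in 96-well plates and compounds tested at five concentrations. At the GI50, growth is halved.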 Active and inactive are the calls of the source. No stated cut-off is given here; in the data, active = GI50 up to about 1.1 µM and inactive = higher. Where only a bound is given, the exact number is not on record here.

With `Cc1cc(C)cc(Nc2nnc3n2S(=O)(=O)c2cc(C)c(Cl)cc2S3)c1`, the GI50 with A498 is 5.09 µM (inactive); with COLO 205, 4.72 µM (inactive); in the test with HCC 2998 it was 4.8 µM (inactive); in the test with HL-60 it was 4.17 µM (inactive); in the test on HOP-62 it was 7.31 µM (inactive); with MCF7 it was 3.77 µM (inactive). The GI50 in the test with MDA-MB-435 was 6.03 µM (inactive); in the test with Malme-3M, 1.87 µM (inactive); in the test on NCI-H23, 2.96 µM (inactive); in the test on NCI-H522 it was 3.56 µM (inactive); with OVCAR-3, 4.27 µM (inactive); with OVCAR-5, 5.35 µM (inactive). The GI50 in the test on PC-3 was 2.77 µM (inactive); in the test on SF-268, 3.81 µM (inactive); with SK-MEL-28 it was 17.6 µM (inactive); in the test with SK-MEL-5, 5.92 µM (inactive); with SN12C, 5.61 µM (inactive); with UACC-62 it was 5.65 µM (inactive).
Turning to `CCCCCCCCCCn1cccc1/C=C/c1ccc(/C=C/c2cccn2CCCCCCCCCC)cc1`, the GI50 with A498, in the test with COLO 205, in the test with HCC 2998, in the test with HL-60, in the test with HOP-62 and in the test on HOP-92 was > 100 µM (inactive) in each case. Moreover, the GI50 with Malme-3M, in the test on NCI-H23, in the test with NCI-H522, in the test on OVCAR-3, in the test on OVCAR-5 and in the test with SF-268 was > 100 µM (inactive) each time. Moreover, the GI50 in the test with SK-MEL-28, with SK-MEL-5, in the test with SN12C and in the test with UACC-62 was > 100 µM (inactive) each time.
As for `O=C(Nc1nnc(-c2ccc(Cl)cc2)o1)C(SC(=S)N1CCOCC1)c1ccccc1` (stereo unspecified), the GI50 in the test with A498 was 20.4 µM (inactive); with COLO 205, 13.7 µM (inactive); in the test with HL-60, 5.69 µM (inactive); in the test with HOP-62, 16.6 µM (inactive); in the test on MCF7, 22.3 µM (inactive); in the test on MDA-MB-435 it was 17.6 µM (inactive). In addition, the GI50 is 35 µM (inactive) with Malme-3M; 20.9 µM (inactive) in the test on NCI-H23; 16.3 µM (inactive) in the test on NCI-H522; 9.38 µM (inactive) with OVCAR-3; 34.8 µM (inactive) in the test on OVCAR-5; 13.6 µM (inactive) in the test on PC-3. Besides, the figures for the GI50 in the test on SK-MEL-28, in the test with SK-MEL-5 and in the test on SN12C were 23.2 µM (inactive), 12.4 µM (inactive) and 8.22 µM (inactive), respectively.
Regarding `N#CC1(N2CCCC2)CCC2(CC1)OCCO2`, the GI50 was > 100 µM (inactive) with A498; > 10 µM (inactive) in the test with COLO 205; > 100 µM (inactive) in the test with HCC 2998; > 100 µM (inactive) in the test with HL-60; > 100 µM (inactive) with HOP-62; > 100 µM (inactive) in the test with HOP-92. For the same compound, the GI50 in the test with Malme-3M, in the test with NCI-H23, in the test on NCI-H522, in the test with OVCAR-3, with OVCAR-5 and with SF-268 was > 100 µM (inactive) each time. Also, the GI50 in the test with SK-MEL-28, in the test on SK-MEL-5, in the test with SN12C and with UACC-62 was > 100 µM (inactive) throughout.
Take `CN(C(=O)[C@@H](NC(=O)OC(C)(C)C)c1ccccc1)[C@H]1CCCC[C@@H]1N1CCCC1`: the GI50 in the test on A498, in the test with COLO 205, in the test with HL-60, in the test on HOP-62, in the test on MCF7 and with MDA-MB-435 was > 100 µM (inactive) in each case. For the same compound, the GI50 in the test with NCI-H23, in the test with NCI-H522, with OVCAR-3, in the test on OVCAR-5, in the test with PC-3 and with SF-268 was > 100 µM (inactive) in each case. Further, the GI50 with SK-MEL-28, with SK-MEL-5, in the test with SN12C and in the test with UACC-62 was > 100 µM (inactive) each time.
Turning to `O=C(O)CCNCCCCNCCC(=O)O`, the GI50 in the test on A498, with COLO 205, in the test on HCC 2998, with HL-60, in the test on HOP-62 and in the test on HOP-92 was > 100 µM (inactive) each time. Besides, the GI50 in the test on Malme-3M, with NCI-H23, in the test on NCI-H522, in the test on OVCAR-3, in the test with OVCAR-5 and with SF-268 was > 100 µM (inactive) in each case. Further, the GI50 in the test with SK-MEL-28, with SK-MEL-5, in the test on SN12C and in the test on UACC-62 was > 100 µM (inactive) each time.
Turning to `O=C(O)c1cc(S(=O)(=O)N/N=C\c2c3ccccc3[n+]([O-])c3ccccc23)ccc1O`, the GI50 was 14.1 µM (inactive) with A498; 15.1 µM (inactive) in the test with COLO 205; 6.97 µM (inactive) with HCC 2998; 4.07 µM (inactive) with HL-60; 7.48 µM (inactive) in the test with HOP-62; 9.64 µM (inactive) with HOP-92. Besides, the GI50 with Malme-3M was 17.7 µM (inactive); in the test on NCI-H23, 8.04 µM (inactive); in the test on NCI-H522, 8.3 µM (inactive); with OVCAR-3 it was 40.1 µM (inactive); in the test with OVCAR-5, 30.7 µM (inactive); with SF-268, 11.7 µM (inactive). Further, the GI50 was 12.3 µM (inactive) in the test on SK-MEL-28, 11.7 µM (inactive) in the test with SK-MEL-5, 17.9 µM (inactive) in the test on SN12C and 8.69 µM (inactive) in the test on UACC-62.
`CCOP(=O)(OCC)C(C(=O)OC)C(=O)C(=O)Nc1ccc(Cl)cc1Cl` (stereo unspecified): the GI50 with A498, with COLO 205, with HCC 2998, in the test on HL-60, in the test with HOP-62 and in the test on HOP-92 was > 100 µM (inactive) each time. In addition, the GI50 with Malme-3M, with NCI-H23, with NCI-H522, in the test with OVCAR-3, in the test on OVCAR-5 and in the test on SF-268 was > 100 µM (inactive) in each case. Further, the GI50 in the test with SK-MEL-28, with SK-MEL-5, with SN12C and in the test with UACC-62 was > 100 µM (inactive) in each case.
In the case of `COc1ccc(C(=O)C=C2NCCN2)cc1`, the GI50 with A498, in the test with COLO 205, with HCC 2998, in the test on HL-60, in the test on HOP-62 and in the test with HOP-92 was > 100 µM (inactive) throughout. For the same compound, the GI50 in the test with Malme-3M, in the test on NCI-H23, in the test on NCI-H522, with OVCAR-3, with OVCAR-5 and in the test with SF-268 was > 100 µM (inactive) throughout. Besides, the GI50 in the test with SK-MEL-28, in the test with SK-MEL-5, with SN12C and with UACC-62 was > 100 µM (inactive) each time.
In the case of `CC(=O)OCC1OC(OC2CC3C(C)(C)C(O)CC[C@]3(C)C3CCC45CC4(CC[C@H]5C(C)CC(O)C4OC4(C)C)[C@]23C)C(O)C(O)C1O` (stereo partly specified), the GI50 in the test on A498 was 34.5 µM (inactive); in the test with COLO 205, 7.24 µM (inactive); in the test on HCC 2998, 7.06 µM (inactive); with HL-60 it was 0.973 µM (active); in the test with HOP-62 it was 11.1 µM (inactive); in the test on HOP-92, 5.06 µM (inactive). The GI50 was 8.97 µM (inactive) with Malme-3M; 8.75 µM (inactive) in the test on NCI-H23; 4.89 µM (inactive) in the test on NCI-H522; 6.17 µM (inactive) in the test on OVCAR-3; 9.12 µM (inactive) in the test on OVCAR-5; 6.38 µM (inactive) in the test on SF-268. Also, the GI50 in the test with SK-MEL-28 is 7.41 µM (inactive); in the test with SK-MEL-5 it was 3.1 µM (inactive); with SN12C it was 8.24 µM (inactive); in the test with UACC-62, 7.45 µM (inactive).
As for `Cc1c2ccncc2c(C)c2c1[nH]c1ccc(OC(C)(C)C)cc12`, the GI50 in the test with A498 was 12.2 µM (inactive); in the test on COLO 205, 1.47 µM (inactive); in the test with HCC 2998, 1.85 µM (inactive); in the test with HL-60 it was 1.81 µM (inactive); in the test with HOP-62, 2.88 µM (inactive); in the test with HOP-92, 9.82 µM (inactive). Moreover, the GI50 with Malme-3M is 1.77 µM (inactive); in the test with NCI-H23 it was 5.36 µM (inactive); in the test on NCI-H522 it was 2.44 µM (inactive); with OVCAR-3 it was 1.73 µM (inactive); in the test on OVCAR-5 it was 11.7 µM (inactive); in the test on SF-268, 5.12 µM (inactive). Also, the GI50 in the test with SK-MEL-28 is 1.76 µM (inactive); with SK-MEL-5, 2.14 µM (inactive); in the test on UACC-62 it was 2.31 µM (inactive).
Take `CC1=Nn2c(nnc2-c2ccc(N)cc2)NC(C)(C)C1`: the GI50 in the test on A498, with COLO 205, in the test with HCC 2998, in the test with HL-60, in the test on HOP-62 and with HOP-92 was > 100 µM (inactive) in each case. The GI50 in the test with Malme-3M, with NCI-H23, in the test on NCI-H522, in the test with OVCAR-3, in the test on OVCAR-5 and in the test on SF-268 was > 100 µM (inactive) each time. Also, the GI50 in the test with SK-MEL-28, with SK-MEL-5 and with UACC-62 was > 100 µM (inactive) in each case.
